Data as given in patent publication US9676757B2, “Heterocyclic compounds as NaV channel inhibitors and uses thereof” (Merck Patent GmbH, priority 2014, dated 2017).
Like-named read-outs stand apart in the source and are kept apart here.

Molecular target: Nav1.6 (Homo sapiens, UniProt Q9UQD0)
Assay: Nav two-pulse protocol, IonWorks Quattro electrophysiology
Format: cell-based
Settings: -120 mV to 0 mV, compound incubated 300 s
Description: Compound Plate Preparation
Supplied compounds were sent as Assay Ready Plates, with 2 μL per well of compound in DMSO at 300× the final assay concentrations as described above and in the project proposal. All assay plates are stored at in a −80° C. freezer.
On the day of the assay, 198 μL of external solution was added to the appropriate assay plate and mixed thoroughly. This provided a 1:100 dilution. A further 1:3 dilution occurred upon addition to the cells in the IonWorks, giving a 1:300 dilution in total.
On each assay plate, at least 8 wells were reserved for vehicle control (0.3% DMSO) and at least 8 wells for each positive control specific to the cell line tested. The positive controls were tested in an 8-point dose response with 3-fold dilutions to determine an IC50 value for each run. The positive control compounds are outlined below.
Ion Channel Positive Control & Concentrations
Nav1.6/1.2 Lidocaine: 8, 3-fold dilutions starting at 100 μM
Electrophysiological Recording Solutions
The solutions for recording currents were are follows:
Amphotericin B was used to obtain electrical access to the cell interior at a final concentration of 200 μg/ml in internal recording solution.
Experimental Protocols & Data Analysis
Nav currents were evoked by stepping from a holding potential of −120 mV to 0 mV for 2.5 s (pulse 1), followed by a 5 ms inter-pulse interval, and stepping from a holding potential of −120 mV to 0 mV for 20 ms (pulse 2). The voltage protocol was applied (Pre), compounds added, incubated for 300 seconds, and the voltage protocol was applied a final time (Post) on the IonWorks Quattro.
The parameters measured were the maximum inward current evoked on stepping to 0 mV from the 1st and 2nd pulse. All data were filtered for seal quality, seal drop, and current amplitude. The peak current amplitude (Peak) was calculated before (Pre) and after (Post) compound addition to the amount of block was assessed by dividing the Post-compound current amplitude by the Pre-compound current amplitude. These procedures were implemented for the 1st and 2nd pulse.

Sequence of Nav1.6 (Q9UQD0 whole entry): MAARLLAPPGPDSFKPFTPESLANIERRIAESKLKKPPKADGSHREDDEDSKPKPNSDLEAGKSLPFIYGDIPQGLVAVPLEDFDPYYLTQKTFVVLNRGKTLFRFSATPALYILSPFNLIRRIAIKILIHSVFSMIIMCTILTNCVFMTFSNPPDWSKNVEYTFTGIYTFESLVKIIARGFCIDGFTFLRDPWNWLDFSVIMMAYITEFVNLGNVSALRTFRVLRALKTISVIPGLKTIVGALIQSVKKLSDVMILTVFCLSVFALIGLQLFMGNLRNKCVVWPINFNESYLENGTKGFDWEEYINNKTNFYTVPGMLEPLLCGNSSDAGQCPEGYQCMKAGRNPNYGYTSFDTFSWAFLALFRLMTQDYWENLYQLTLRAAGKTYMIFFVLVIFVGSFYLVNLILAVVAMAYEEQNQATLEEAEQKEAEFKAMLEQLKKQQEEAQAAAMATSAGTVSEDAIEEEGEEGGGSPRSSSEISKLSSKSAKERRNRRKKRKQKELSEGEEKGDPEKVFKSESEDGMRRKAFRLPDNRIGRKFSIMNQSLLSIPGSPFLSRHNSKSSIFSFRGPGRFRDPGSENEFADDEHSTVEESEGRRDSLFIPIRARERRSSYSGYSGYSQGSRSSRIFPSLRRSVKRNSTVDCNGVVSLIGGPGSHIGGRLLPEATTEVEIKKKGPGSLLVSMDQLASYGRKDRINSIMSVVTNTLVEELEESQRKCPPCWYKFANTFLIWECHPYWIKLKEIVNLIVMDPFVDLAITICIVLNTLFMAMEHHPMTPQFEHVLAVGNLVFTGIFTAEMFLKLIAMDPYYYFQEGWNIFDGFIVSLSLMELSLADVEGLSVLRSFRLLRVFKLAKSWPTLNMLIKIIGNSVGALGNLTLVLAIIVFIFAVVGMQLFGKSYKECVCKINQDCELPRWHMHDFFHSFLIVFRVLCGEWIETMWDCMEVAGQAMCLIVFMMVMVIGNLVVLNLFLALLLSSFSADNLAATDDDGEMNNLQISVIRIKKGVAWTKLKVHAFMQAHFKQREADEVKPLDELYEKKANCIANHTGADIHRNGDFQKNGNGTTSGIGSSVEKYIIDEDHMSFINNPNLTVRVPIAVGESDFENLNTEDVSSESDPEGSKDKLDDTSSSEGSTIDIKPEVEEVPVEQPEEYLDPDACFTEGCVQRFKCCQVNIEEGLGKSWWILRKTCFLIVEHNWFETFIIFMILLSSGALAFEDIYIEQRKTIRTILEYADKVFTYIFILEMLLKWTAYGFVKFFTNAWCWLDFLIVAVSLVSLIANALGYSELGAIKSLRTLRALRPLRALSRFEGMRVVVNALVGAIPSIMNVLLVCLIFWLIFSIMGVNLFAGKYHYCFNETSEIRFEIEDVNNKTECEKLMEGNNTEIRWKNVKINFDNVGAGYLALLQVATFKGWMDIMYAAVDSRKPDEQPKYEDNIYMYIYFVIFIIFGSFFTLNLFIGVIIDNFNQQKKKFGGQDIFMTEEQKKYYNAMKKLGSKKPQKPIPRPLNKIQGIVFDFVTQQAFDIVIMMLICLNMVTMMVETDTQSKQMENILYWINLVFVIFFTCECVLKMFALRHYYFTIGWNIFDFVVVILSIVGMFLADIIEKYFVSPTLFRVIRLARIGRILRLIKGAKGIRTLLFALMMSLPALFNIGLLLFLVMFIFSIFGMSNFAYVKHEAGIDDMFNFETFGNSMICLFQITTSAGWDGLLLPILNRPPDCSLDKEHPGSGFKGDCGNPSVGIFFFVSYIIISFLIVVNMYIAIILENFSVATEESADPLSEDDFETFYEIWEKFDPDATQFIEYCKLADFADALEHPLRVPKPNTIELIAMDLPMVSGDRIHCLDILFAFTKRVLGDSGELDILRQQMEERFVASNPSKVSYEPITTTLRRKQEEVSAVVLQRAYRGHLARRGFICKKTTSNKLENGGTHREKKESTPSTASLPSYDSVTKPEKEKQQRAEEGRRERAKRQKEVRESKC

SMILES	IC50 (read-out: Nav1.6 Tonic) [µM]	IC50 (read-out: Nav1.6 inac) [µM]
COc1ccc(-c2nc(C3CCN(Cc4cccc(OCC(C)C)c4)C3)no2)nc1 (stereo not drawn) [Compound 54, 2-{3-[1-(3-Isobutoxy-benzyl)-pyrrolidin-3-yl]-[1,2,4]oxadiazol-5-yl}-5-methoxy-pyridine]	> 20	1 to 5
O=C(NCc1c(F)cccc1F)C1CCN(Cc2cccc(Oc3ccccc3)c2)C1 (stereo not drawn) [Compound 79, 1-(3-Phenoxy-benzyl)-pyrrolidine-3-carboxylic acid 2,6-difluoro-benzylamide]	10 to 20	< 1
CC(C)(C)c1ccc(CNC(=O)C2CCN(Cc3cccc(Oc4ccccc4)c3)C2)cc1 (stereo not drawn) [Compound 81, 1-(3-Phenoxy-benzyl)-pyrrolidine-3-carboxylic acid 4-tert-butyl-benzylamide]	10 to 20	< 1
CCNC(=O)C1(C)CCN(C(=O)c2cccc(Oc3ccccc3)c2)C1 (stereo not drawn) [Compound 40, 3-Methyl-1-(3-phenoxy-benzoyl)-pyrrolidine-3-carboxylic acid ethylamide]	10 to 20	< 1
O=C(NCc1ccccn1)C1CCN(Cc2cccc(Oc3ccccc3F)c2)C1 (stereo not drawn) [Compound 14, 1-[3-(2-Fluoro-phenoxy)-benzyl]-pyrrolidine-3-carboxylic acid (pyridin-2-ylmethyl)-amide]	> 20	> 5
O=C(NCc1ccc(F)c(F)c1)C1CCN(Cc2cccc(Oc3ccccc3)c2)C1 (stereo not drawn) [Compound 80, 1-(3-Phenoxy-benzyl)-pyrrolidine-3-carboxylic acid 3,4-difluoro-benzylamide]	10 to 20	< 1
CC(C)COc1cccc(CN2CCC(c3noc(-c4cc(Cl)ccn4)n3)C2)c1 (stereo not drawn) [Compound 53, 4-Chloro-2-{3-[1-(3-isobutoxy-benzyl)-pyrrolidin-3-yl]-[1,2,4]oxadiazol-5-yl}-pyridine]	> 20	1 to 5
Cc1ccc(Oc2cccc(CN3CCC(C(=O)NCc4ccccn4)C3)c2)cc1 (stereo not drawn) [Compound 1, 1-(3-p-Tolyloxy-benzyl)-pyrrolidine-3-carboxylic acid (pyridin-2-ylmethyl)-amide]	> 20	< 1
CC1(C)Oc2ccc(CN3CCC(C(=O)NCc4ccccn4)C3)cc2O1 (stereo not drawn) [Compound 33, 1-(2,2-Dimethyl-benzo[1,3]dioxol-5-ylmethyl)-pyrrolidine-3-carboxylic acid (pyridin-2-ylmethyl)-amide]	> 20	1 to 5
O=C(NCc1ccccn1)C1CCN(Cc2cccc(Oc3ccc(F)cc3)c2)C1 (stereo not drawn) [Compound 13, 1-[3-(4-Fluoro-phenoxy)-benzyl]-pyrrolidine-3-carboxylic acid (pyridin-2-ylmethyl)-amide]	> 20	< 1
COc1ccc(Oc2cccc(CN3CCC(C(=O)NCc4ccccn4)C3)c2)cc1 (stereo not drawn) [Compound 6, 1-[3-(4-Methoxy-phenoxy)-benzyl]-pyrrolidine-3-carboxylic acid (pyridin-2-ylmethyl)-amide]	> 20	> 5
O=C(NCc1ccccn1)C1CCN(Cc2cccc(OCC(F)(F)F)c2)C1 (stereo not drawn) [Compound 30, 1-[3-(2,2,2-Trifluoro-ethoxy)-benzyl]-pyrrolidine-3-carboxylic acid (pyridin-2-ylmethyl)-amide]	> 20	< 1
O=C(NCc1ccc(Cl)cc1)C1CCN(Cc2cccc(Oc3ccccc3)c2)C1 (stereo not drawn) [Compound 68, 1-(3-Phenoxy-benzyl)-pyrrolidine-3-carboxylic acid 4-chloro-benzylamide]	10 to 20	1 to 5
CC1(C)Cc2cc(CN3CCC(C(=O)NCc4ccccn4)C3)ccc2O1 (stereo not drawn) [Compound 32, 1-(2,2-Dimethyl-2,3-dihydro-benzofuran-5-ylmethyl)-pyrrolidine-3-carboxylic acid (pyridin-2-ylmethyl)-amide]	> 20	1 to 5
O=C(NCc1ccccn1)C1CCN(Cc2ccc(F)c(Oc3ccccc3)c2)C1 (stereo not drawn) [Compound 15, 1-(4-Fluoro-3-phenoxy-benzyl)-pyrrolidine-3-carboxylic acid (pyridin-2-ylmethyl)-amide]	> 20	> 5
